Experimental data published in ChEMBL document CHEMBL4831557, “Parthenolide Derivatives as PKM2 Activators Showing Potential in Colorectal Cancer” (J Med Chem, 2021).
The source made the active and inactive calls. The rule behind the calls is not given here.

How the values were obtained:
[1] = test system: HT-29; test: Inhibition of epithelial-mesenchymal transition in human HT-29 cells assessed as change in Snail-2 expression; assay type: functional, cell-based
[2] = target: T1, Pyruvate kinase PKM (Homo sapiens, UniProt P14618); test: Inhibition of PKM2/STAT3 in human HT-29 cells assessed as reduction in cyclin-D1 protein expression at 0.45 to 1.8 uM incubated for 48 hrs by Western blot analysis; assay type: cell-based; conditions: dose 0.45-1.8 µM
T1 sequence (P14618 2-531 limits assumed): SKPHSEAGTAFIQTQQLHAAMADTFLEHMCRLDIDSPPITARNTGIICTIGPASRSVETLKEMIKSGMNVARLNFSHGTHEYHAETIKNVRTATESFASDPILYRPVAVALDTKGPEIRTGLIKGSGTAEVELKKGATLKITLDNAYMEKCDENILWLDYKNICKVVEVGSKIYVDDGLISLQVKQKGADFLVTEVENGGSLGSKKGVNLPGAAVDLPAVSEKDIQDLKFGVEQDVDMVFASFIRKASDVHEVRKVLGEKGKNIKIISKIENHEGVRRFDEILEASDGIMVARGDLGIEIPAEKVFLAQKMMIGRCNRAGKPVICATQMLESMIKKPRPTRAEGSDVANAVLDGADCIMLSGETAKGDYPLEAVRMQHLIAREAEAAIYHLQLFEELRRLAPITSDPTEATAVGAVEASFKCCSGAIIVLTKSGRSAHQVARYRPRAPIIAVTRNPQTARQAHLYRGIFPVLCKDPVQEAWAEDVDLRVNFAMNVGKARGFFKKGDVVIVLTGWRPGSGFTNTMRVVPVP

[3] = test system: HT-29; test: Antiproliferative activity against human HT-29 cells at 0.25 to 1 uM measured after 48 hrs by EdU staining based confocal microscopic analysis; assay type: functional, cell-based; conditions: dose 0.25-1 µM
[4] = test system: HT-29; test: Antitumor activity against human HT-29 cells xenografted in BALB/c mouse assessed as reduction in tumor growth at 15 to 30 mg/kg, ip administered once every 2 days for 2 weeks by vernier caliper method; assay type: functional, organism-based; conditions: dose 15-30 mg/kg
[5] = test system: HT-29; test: Induction of cell cycle arrest in human HT-29 cells assessed as accumulation of cells at G2/M phase after 48 hrs by PI staining based flow cytometric analysis; assay type: functional; conditions: dose 0.45-1.8 µM
[6] = test system: HCT-116; test: Cytotoxicity against human HCT-116 cells assessed as reduction in cell viability incubated for 48 hrs by MTT assay; assay type: functional, cell-based; conditions: HCT-116, 48 h
[7] = test system: MDA-MB-231; test: Cytotoxicity against human MDA-MB-231 cells assessed as reduction in cell viability incubated for 48 hrs by MTT assay; assay type: functional, cell-based; conditions: MDA-MB-231, 48 h
[8] = target: T1, Pyruvate kinase PKM; test: Inhibition of PKM2 dimer nuclear translocation in human HT-29 cells by immunostaining based analysis; assay type: cell-based
[9] = test system: SW480; test: Effect on mitochondrial membrane potential in human SW480 cells at 0.2 to 0.6 uM measured after 48 hrs by JC-1 staining based assay; assay type: functional, cell-based; conditions: dose 0.2-0.6 µM
[10] = test system: HT-29; test: Induction of apoptosis in human HT-29 cells assessed as increase in cleaved PARP expression at 0.45 to 1.8 uM after 48 hrs by Western blotting analysis; assay type: functional, cell-based; conditions: dose 0.45-1.8 µM
[11] = Selectivity index, ratio of IC50 for human NCM460 cells to IC50 for human HT-29 cells; assay type: toxicity; conditions: NCM460 cells versus HT-29 cells, read-out: Ratio IC50
[12] = test system: HT-29; test: Antimigratory activity against human HT-29 cells; assay type: functional, cell-based

With `C=C1C(=O)O[C@H]2[C@H]1CC/C(COC(=O)c1ccc3nccc(Br)c3c1)=C/CC[C@@]1(C)O[C@@H]21` the inhibition [1] was “inactive”, the inhibition [2] was “Active” and the Activity [3] was “Active”. The Activity [4] was “Active”, the Activity [5] was “Dose-Dependent Effect” and the IC50 [6] was 1 µM. The IC50 [7] was 1.03 µM, the inhibition [8] was “Active” and the Activity [9] was “Active”. The Activity [10] was “Active”, the selectivity ratio [11] was 3.06 and the Activity [12] was “Active”.
